Results as given in publication PMC11648230, “Structure–function analysis of tRNA t^6A-catalysis, assembly, and thermostability of Aquifex aeolicus TsaD2B2 tetramer in complex with TsaE” (The Journal of Biological Chemistry, 2024).

Target: T1, A. aeolicus TsaD2B2 (TsaD-TsaB) (Aquifex aeolicus, UniProt O66986)
T1 construct: recombinant from E. coli; co-expressed (pET21a-BC10_DZop), C-terminal 6His on TsaB; tetramer; Cys10 of TsaD oxidized (CSO10) in crystals; with tRNA threonylcarbamoyladenosine biosynthesis protein TsaB
T1 sequence (O66494 entry or part of it): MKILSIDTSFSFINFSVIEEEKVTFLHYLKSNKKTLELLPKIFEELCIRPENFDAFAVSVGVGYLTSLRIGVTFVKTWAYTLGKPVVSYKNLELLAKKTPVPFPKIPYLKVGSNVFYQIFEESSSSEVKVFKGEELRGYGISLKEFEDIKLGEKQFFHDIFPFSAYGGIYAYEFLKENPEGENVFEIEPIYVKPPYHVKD
T1 sequence (O66986 whole entry): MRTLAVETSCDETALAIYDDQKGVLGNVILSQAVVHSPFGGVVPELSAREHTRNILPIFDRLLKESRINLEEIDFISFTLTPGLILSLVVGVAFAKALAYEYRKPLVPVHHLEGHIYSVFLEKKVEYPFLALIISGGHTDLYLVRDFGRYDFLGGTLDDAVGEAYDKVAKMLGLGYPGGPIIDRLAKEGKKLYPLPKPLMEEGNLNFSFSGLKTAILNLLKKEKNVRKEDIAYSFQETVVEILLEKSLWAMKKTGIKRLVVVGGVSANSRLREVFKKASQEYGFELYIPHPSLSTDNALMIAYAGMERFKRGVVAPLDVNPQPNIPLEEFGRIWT
Assay: LC-MS of tRNA t6A formation
Type: biochemical
Settings: isolated TC-AMP 30 uM, EDTA-dialyzed TsaD2B2 plus MgCl2, FeCl2 or ZnCl2 100 uM, 60 uM tRNA-Lys(UUU), no TsaE

C[C@@H](O)[C@H](NC(=O)OP(=O)(O)OC[C@H]1O[C@@H](n2cnc3c(N)ncnc32)[C@H](O)[C@@H]1O)C(=O)O [TC-AMP]
LC-MS of tRNA t6A formation: we only used EDTA-dialyzed TsaD2B2, HPLC-purified TC-AMP, and SEC-purified IVT tRNA^LysUUU
